In general, IC50 refers to the concentration needed to halve the response being measured.

In one test the target is recombinant Plk1 (Homo sapiens, UniProt P53350). The test is described as follows: In Vitro Plk1 Enzyme Assay (SPA, GST-Cdc25C phosphorylation). Conditions: ATP 64 nM, 90 minutes, read-out: IC50 (Plk1 enzyme inhibition). In kind it is biochemical.
For test [1], the system named is human colon tumour cell line HT29. The test is described as follows: Cellular Assay (phosphohistone H3 Ser10 mitotic marker, HT29). In kind it is cell-based. Conditions: HT-29, 24 h, HT29 cells, read-out: IC50 (cellular assay, phosphohistone H3).
Protocol: Chromosome condensation in mitosis is accompanied by phosphorylation of histone H3 on serine 10.
After 24 hours, cells were fixed in 3.7% (v/v) formaldehyde then permeabilised and blocked for 10 minutes in 100 μl 0.5% (v/v) Triton X-100, 1% (w/v) bovine serum albumin (BSA) in phosphate buffered saline (PBS). […] The raw assay data were analysed by non-linear regression analysis and used to determine an IC50 value for each compound.

Each structure is given as a SMILES string.

recombinant Plk1, sequence (P53350 whole entry): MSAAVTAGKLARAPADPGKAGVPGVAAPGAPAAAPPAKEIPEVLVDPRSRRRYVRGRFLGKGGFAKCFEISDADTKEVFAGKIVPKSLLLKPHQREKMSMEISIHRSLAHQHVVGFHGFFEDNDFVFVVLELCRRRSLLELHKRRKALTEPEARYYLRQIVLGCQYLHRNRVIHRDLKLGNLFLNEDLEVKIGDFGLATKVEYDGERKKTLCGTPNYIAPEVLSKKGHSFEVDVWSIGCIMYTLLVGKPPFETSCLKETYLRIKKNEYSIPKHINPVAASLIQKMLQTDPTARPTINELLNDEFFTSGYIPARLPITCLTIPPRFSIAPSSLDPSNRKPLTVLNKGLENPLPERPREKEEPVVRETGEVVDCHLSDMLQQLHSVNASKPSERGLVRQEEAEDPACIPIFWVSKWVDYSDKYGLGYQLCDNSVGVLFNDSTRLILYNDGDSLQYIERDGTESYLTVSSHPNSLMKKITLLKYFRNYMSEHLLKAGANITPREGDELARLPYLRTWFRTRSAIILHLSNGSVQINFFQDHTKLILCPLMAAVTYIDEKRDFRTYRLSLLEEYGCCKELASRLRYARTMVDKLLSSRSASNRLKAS
Protocol for recombinant Plk1: Reactions were stopped by addition of EDTA (110 mM) and the Cdc25C substrate captured via its GST tag to anti-GST antibody (Molecular Probes, Cat No A-5800) coated Protein A PVT SPA beads (Amersham Biosciences, Catalogue No. RPQ0019; 250 μg/well) in 50 mM HEPES pH7.5 buffer containing 0.05% (w/v) sodium azide and incubated for up to 2 hours, followed by the addition of 20 μl of 4M caesium chloride (final assay concentration of 1M). Plates were then left in the dark overnight before counting on a Packard TopCount NXT.
Radiolabelled phosphorylated substrate is formed in situ as a result of Plk1 mediated phosphorylation. The SPA beads contain a scintillant that can be stimulated to emit light. This stimulation only occurs when a radiolabelled phosphorylated substrate is bound to the surface of the coated SPA bead causing the emission of blue light that can be measured on a scintillation counter. Accordingly, the extent of Plk1 mediated Cdc25C phosphorylation was assessed. The raw assay data were then analysed by non-linear regression analysis and Plk1 enzyme inhibition for a given test compound is expressed as an IC50 value.

As to `COc1cc(C(=O)N[C@H]2C[C@H]3CCC[C@@H](C2)N3C)ccc1Nc1ncc2c(n1)N(C1CCCC1)CCC(=O)N2C` [Example 59, 4-[(6-cyclopentyl-2-methyl-3-oxo-2,6,8,10-tetrazabicyclo[5.4.0]undeca-8,10,12-trien-9-yl)amino]-3-methoxy-N-[(1S,5R)-9-methyl-9-azabicyclo[3.3.1]non-7-yl]benzamide], the IC50 (at recombinant Plk1; in test [1]) was under 300 nM each time.
Regarding `COc1cc(C(=O)NC2CCC(N(C)C)CC2)ccc1Nc1ncc2c(n1)N(C1CCCC1)CCC(=O)N2C` (stereo not drawn) [Example 60, 4-[(6-cyclopentyl-2-methyl-3-oxo-2,6,8,10-tetrazabicyclo[5.4.0]undeca-8,10,12-trien-9-yl)amino]-N-(4-dimethylaminocyclohexyl)-3-methoxy-benzamide], the 50% inhibitory concentration (IC50) (on recombinant Plk1; in test [1]) was under 300 nM in each case.
As to `CCN1CCC(NC(=O)c2ccc(Nc3ncc4c(n3)N(C3CCCC3)CCC(=O)N4C)c(OC)c2)CC1` [Example 61, 4-[(6-cyclopentyl-2-methyl-3-oxo-2,6,8,10-tetrazabicyclo[5.4.0]undeca-8,10,12-trien-9-yl)amino]-N-(1-ethyl-4-piperidyl)-3-methoxy-benzamide], the half-maximal inhibitory concentration (IC50) (on recombinant Plk1; in test [1]) was under 300 nM in each case.
In the case of `COc1cc(C(=O)N[C@@H]2CCN(C)C2)ccc1Nc1ncc2c(n1)N(C1CCCC1)CCC(=O)N2C` [Example 62, 4-[(6-cyclopentyl-2-methyl-3-oxo-2,6,8,10-tetrazabicyclo[5.4.0]undeca-8,10,12-trien-9-yl)amino]-3-methoxy-N-[(3R)-1-methylpyrrolidin-3-yl]benzamide], the IC50 (on recombinant Plk1; in test [1]) was under 300 nM in each case.
In the case of `COc1cc(C(=O)N[C@H]2CCN(C)C2)ccc1Nc1ncc2c(n1)N(C1CCCC1)CCC(=O)N2C` [Example 63, 4-[(6-cyclopentyl-2-methyl-3-oxo-2,6,8,10-tetrazabicyclo[5.4.0]undeca-8,10,12-trien-9-yl)amino]-3-methoxy-N-[(3S)-1-methylpyrrolidin-3-yl]benzamide], the concentration for half-maximal inhibition (IC50) (on recombinant Plk1; in test [1]) was under 300 nM each time.
As to `COc1cc(C(=O)N[C@H]2[C@@H]3CN(C)C[C@@H]32)ccc1Nc1ncc2c(n1)N(C1CCCC1)CCC(=O)N2C` [Example 64, 4-[(6-cyclopentyl-2-methyl-3-oxo-2,6,8,10-tetrazabicyclo[5.4.0]undeca-8,10,12-trien-9-yl)amino]-3-methoxy-N-[(1S,5R)-3-methyl-3-azabicyclo[3.1.0]hex-6-yl]benzamide], the half-maximal inhibitory concentration (IC50) (at recombinant Plk1; in test [1]) was under 300 nM each time.
Turning to `COc1cc(C(=O)Nc2ccncc2)ccc1Nc1ncc2c(n1)N(C1CCCC1)CCC(=O)N2C` [Example 67, 4-[(6-cyclopentyl-2-methyl-3-oxo-2,6,8,10-tetrazabicyclo[5.4.0]undeca-8,10,12-trien-9-yl)amino]-3-methoxy-N-pyridin-4-yl-benzamide], the IC50 is under 1000 nM at recombinant Plk1 and under 300 nM in test [1].
Take `COc1cc(C(=O)NCCCN2CCCCC2)ccc1Nc1ncc2c(n1)N(C1CCCC1)CCC(=O)N2C` [Example 69, 4-[(6-cyclopentyl-2-methyl-3-oxo-2,6,8,10-tetrazabicyclo[5.4.0]undeca-8,10,12-trien-9-yl)amino]-3-methoxy-N-[3-(1-piperidyl)propyl]benzamide]: the IC50 (on recombinant Plk1; in test [1]) was under 300 nM each time.
In the case of `COc1cc(C(=O)NCCCN2CCCCCC2)ccc1Nc1ncc2c(n1)N(C1CCCC1)CCC(=O)N2C` [Example 70, N-[3-(azepan-1-yl)propyl]-4-[(6-cyclopentyl-2-methyl-3-oxo-2,6,8,10-tetrazabicyclo[5.4.0]undeca-8,10,12-trien-9-yl)amino]-3-methoxy-benzamide], the IC50 on recombinant Plk1 is under 1000 nM; in test [1], under 300 nM.
Take `COc1cc(C(=O)NC2CC3CCC(C2)N3C)ccc1Nc1ncc2c(n1)N(C1CCCC1)CCC(=O)N2C` [Example 71, 4-[(6-cyclopentyl-2-methyl-3-oxo-2,6,8,10-tetrazabicyclo[5.4.0]undeca-8,10,12-trien-9-yl)amino]-3-methoxy-N-[(1S,5R)-8-methyl-8-azabicyclo[3.2.1]oct-3-yl]benzamide]: the IC50 (at recombinant Plk1; in test [1]) was under 300 nM throughout.
Turning to `COc1cc(C(=O)NC2CC(C)(C)N(C)C(C)(C)C2)ccc1Nc1ncc2c(n1)N(C1CCCC1)CCC(=O)N2C` [Example 72, 4-[(6-cyclopentyl-2-methyl-3-oxo-2,6,8,10-tetrazabicyclo[5.4.0]undeca-8,10,12-trien-9-yl)amino]-3-methoxy-N-(1,2,2,6,6-pentamethyl-4-piperidyl)benzamide], the IC50 (on recombinant Plk1; in test [1]) was under 300 nM in each case.
With `COc1cc(C(=O)NC(C)CN2CCCCC2)ccc1Nc1ncc2c(n1)N(C1CCCC1)CCC(=O)N2C` (stereo not drawn) [Example 73, 4-[(6-cyclopentyl-2-methyl-3-oxo-2,6,8,10-tetrazabicyclo[5.4.0]undeca-8,10,12-trien-9-yl)amino]-3-methoxy-N-[1-(1-piperidyl)propan-2-yl]benzamide], the IC50 (on recombinant Plk1; in test [1]) was under 300 nM in each case.
Consider `COc1cc(C(=O)Nc2cccnc2)ccc1Nc1ncc2c(n1)N(C1CCCC1)CCC(=O)N2C` [Example 74, 4-[(6-cyclopentyl-2-methyl-3-oxo-2,6,8,10-tetrazabicyclo[5.4.0]undeca-8,10,12-trien-9-yl)amino]-3-methoxy-N-pyridin-3-yl-benzamide], for which the IC50 at recombinant Plk1 was under 100000 nM; in test [1], under 300 nM.
In the case of `COc1cc(C(=O)NCC(C)(C)N2CCCCC2)ccc1Nc1ncc2c(n1)N(C1CCCC1)CCC(=O)N2C` [Example 75, 4-[(6-cyclopentyl-2-methyl-3-oxo-2,6,8,10-tetrazabicyclo[5.4.0]undeca-8,10,12-trien-9-yl)amino]-3-methoxy-N-[2-methyl-2-(1-piperidyl)propyl]benzamide], the IC50 (on recombinant Plk1; in test [1]) was under 300 nM throughout.
On to `COc1cc(C(=O)NCc2cccnc2)ccc1Nc1ncc2c(n1)N(C1CCCC1)CCC(=O)N2C` [Example 76, 4-[(6-cyclopentyl-2-methyl-3-oxo-2,6,8,10-tetrazabicyclo[5.4.0]undeca-8,10,12-trien-9-yl)amino]-3-methoxy-N-(pyridin-3-ylmethyl)benzamide], for which the IC50 is under 1000 nM on recombinant Plk1 and under 300 nM in test [1].
In the same order, the values of `COc1ccc(NC(=O)c2ccc(Nc3ncc4c(n3)N(C3CCCC3)CCC(=O)N4C)c(OC)c2)cc1` [Example 77, 4-[(6-cyclopentyl-2-methyl-3-oxo-2,6,8,10-tetrazabicyclo[5.4.0]undeca-8,10,12-trien-9-yl)amino]-3-methoxy-N-(4-methoxyphenyl)benzamide] are under 100000 nM and under 1000 nM.
For `CCN(CC)CCCNC(=O)c1ccc(Nc2ncc3c(n2)N(C2CCCC2)CCC(=O)N3C)c(OC)c1` [Example 78, 4-[(6-cyclopentyl-2-methyl-3-oxo-2,6,8,10-tetrazabicyclo[5.4.0]undeca-8,10,12-trien-9-yl)amino]-N-(3-diethylaminopropyl)-3-methoxy-benzamide], the IC50 (at recombinant Plk1; in test [1]) was under 300 nM throughout.
In the case of `COc1cc(C(=O)NCc2ccncc2)ccc1Nc1ncc2c(n1)N(C1CCCC1)CCC(=O)N2C` [Example 80, 4-[(6-cyclopentyl-2-methyl-3-oxo-2,6,8,10-tetrazabicyclo[5.4.0]undeca-8,10,12-trien-9-yl)amino]-3-methoxy-N-(pyridin-4-ylmethyl)benzamide], the IC50 was under 1000 nM at recombinant Plk1 and under 300 nM in test [1].
For `COc1cc(C(=O)NC(C)(C)CN2CCCC2)ccc1Nc1ncc2c(n1)N(C1CCCC1)CCC(=O)N2C` [Example 81, 4-[(6-cyclopentyl-2-methyl-3-oxo-2,6,8,10-tetrazabicyclo[5.4.0]undeca-8,10,12-trien-9-yl)amino]-3-methoxy-N-(2-methyl-1-pyrrolidin-1-yl-propan-2-yl)benzamide], in that order: under 1000 nM and under 300 nM.
Turning to `COc1cc(C(=O)NC[C@@H]2CCCN2CC2CC2)ccc1Nc1ncc2c(n1)N(C1CCCC1)CCC(=O)N2C` [Example 82, 4-[(6-cyclopentyl-2-methyl-3-oxo-2,6,8,10-tetrazabicyclo[5.4.0]undeca-8,10,12-trien-9-yl)amino]-N-[[(2S)-1-(cyclopropylmethyl)pyrrolidin-2-yl]methyl]-3-methoxy-benzamide], the IC50 (at recombinant Plk1; in test [1]) was under 300 nM throughout.
With `COc1cc(C(=O)NCC2(CN3CCCC3)CC2)ccc1Nc1ncc2c(n1)N(C1CCCC1)CCC(=O)N2C` [Example 83, 4-[(6-cyclopentyl-2-methyl-3-oxo-2,6,8,10-tetrazabicyclo[5.4.0]undeca-8,10,12-trien-9-yl)amino]-3-methoxy-N-[[1-(pyrrolidin-1-ylmethyl)cyclopropyl]methyl]benzamide], the IC50 (at recombinant Plk1; in test [1]) was under 300 nM throughout.
As to `COc1cc(C(=O)NCC2CCCN(C)C2)ccc1Nc1ncc2c(n1)N(C1CCCC1)CCC(=O)N2C` (stereo not drawn) [Example 84, 4-[(6-cyclopentyl-2-methyl-3-oxo-2,6,8,10-tetrazabicyclo[5.4.0]undeca-8,10,12-trien-9-yl)amino]-3-methoxy-N-[(1-methyl-3-piperidyl)methyl]benzamide], the half-maximal inhibitory concentration (IC50) (on recombinant Plk1; in test [1]) was under 300 nM throughout.
`COc1cc(C(=O)NCCC2CCCCN2C)ccc1Nc1ncc2c(n1)N(C1CCCC1)CCC(=O)N2C` (stereo not drawn) [Example 85, 4-[(6-cyclopentyl-2-methyl-3-oxo-2,6,8,10-tetrazabicyclo[5.4.0]undeca-8,10,12-trien-9-yl)amino]-3-methoxy-N-[2-(1-methyl-2-piperidyl)ethyl]benzamide]: the IC50 (on recombinant Plk1; in test [1]) was under 300 nM each time.
Regarding `COc1cc(C(=O)N[C@@H]2CC[C@H](C(=O)N(C)C)C2)ccc1Nc1ncc2c(n1)N(C1CCCC1)CCC(=O)N2C` [Example 88, 4-[(6-cyclopentyl-2-methyl-3-oxo-2,6,8,10-tetrazabicyclo[5.4.0]undeca-8,10,12-trien-9-yl)amino]-N-[(1R,3S)-3-(dimethylcarbamoyl)cyclopentyl]-3-methoxy-benzamide], the figures for the IC50 (on recombinant Plk1; in test [1]) were under 100000 nM and under 300 nM, respectively.

Source of the values: US7709471B2, “Compounds” (AstraZeneca AB, priority 2006, dated 2010).
